From PMC4641453 (Science translational medicine, 2015)
Converted amounts (≈) assume the structure as drawn. Read-outs that look alike come from different tables or passages of the source.

Tests used:
[1] = system: Neisseria gonorrhoeae (ATCC 49226); assay type: cell-based; settings: 40 μg of compound on 6 mm disc; range of two experiments
[2] = system: Neisseria meningitidis (ATCC 13077); test: microbe, parasite or virus in culture; assay type: cell-based; settings: ATCC13077, read-out: Zone of inhibition Nm
[3] = system: Listeria monocytogenes (NS512); test: microbe, parasite or virus in culture; assay type: cell-based
[4] = system: Moraxella catarrhalis (ATCC 25238); test: microbe, parasite or virus in culture; assay type: cell-based; settings: ATCC25238, read-out: MIC Moraxella catarrhalis
[5] = system: Streptococcus pneumoniae (R6); test: microbe, parasite or virus in culture; assay type: cell-based; settings: read-out: MIC Spn
S. pneumoniae isolates = assay type: cell-based; settings: Streptococcus pneumoniae
[6] = system: Legionella pneumophila (ATCC 33153); test: microbe, parasite or virus in culture; assay type: cell-based
[7] = system: Streptococcus pneumoniae mutants resistant to compound 1; test: In vitro generation and MIC testing of compound 1 resistant mutants; assay type: cell-based; settings: fifteen compound 1 resistant S. pneumoniae clones (RpsE G27R)
[8] = system: MRSA, Staphylococcus aureus (NRS70); test: microbe, parasite or virus in culture; assay type: cell-based; settings: MRSA|NRS70, read-out: MIC MRSA
[9] = rat, in vivo, 10 mg/kg; cited from earlier work
[10] = system: S. pneumoniae strain TIGR4; test: Mouse intranasal pneumococcal challenge, bacteremia and meningitis; assay type: in vivo, mice; settings: 5 mg/kg from 18 hours after intranasal challenge
[11] = system: Chlamydia trachomatis serovar L2 (strain 434/Bu); test: Chlamydial susceptibility testing in infected HeLa 229 monolayers; settings: up to 100 μg/mL, C. trachomatis-infected monolayers
[12] = system: Streptococcus pyogenes (ATCC 700294); test: microbe, parasite or virus in culture; assay type: cell-based; settings: ATCC700294, read-out: MIC Spy
[13] = assay type: physicochemical; settings: pH 7
[14] = system: Haemophilus influenzae (ATCC 49247); test: microbe, parasite or virus in culture; assay type: cell-based; settings: ATCC49247, read-out: Zone of inhibition Hi
[15] = system: MSSA, Staphylococcus aureus (ATCC 29213); test: microbe, parasite or virus in culture; assay type: cell-based; settings: ATCC29213|MSSA, read-out: MIC MSSA
[16] = system: Enterococcus faecalis (ATCC 33186); test: microbe, parasite or virus in culture; assay type: cell-based; settings: ATCC33186, read-out: MIC Ef
[17] = mean (% CV); cited from earlier work
[18] = system: Bacillus subtilis (ATCC 23857); test: microbe, parasite or virus in culture; assay type: cell-based; settings: ATCC23857, read-out: MIC Bs
[19] = system: S. pneumoniae strain D39x; test: Mouse intranasal pneumococcal challenge, pneumonia and bacteremia; assay type: in vivo, mice
[20] = ATCC700904, read-out: MIC ATCC700904

CN[C@@H]1[C@H](O)[C@H](NC)[C@H]2O[C@@]3(O)C(=O)C[C@@H](C)O[C@H]3O[C@@H]2[C@H]1O [Spectinomycin, spectinomycin]
Zone of inhibition Ng [1]: 10–11.5 mm | zone of inhibition at 40 µg/disc [2]: 13 to 15 mm | MIC ([3]; Listeria monocytogenes, read-out: MIC Lm): 50 µg/mL (≈ 150 µM) | MIC Lm ([3]; NS512, range of two independent experiments): 50 µg/mL (≈ 150 µM) | MIC [4]: 6 µg/mL (≈ 18.1 µM) | MIC [5]: 12.5 µg/mL (≈ 37.6 µM) | MIC (S. pneumoniae isolates; [20]): 25 µg/mL (≈ 75.2 µM) | MIC (S. pneumoniae isolates; read-out: MIC 8249): 25 µg/mL (≈ 75.2 µM) | MIC (S. pneumoniae isolates; read-out: MIC A66.1x): 6 µg/mL (≈ 18.1 µM) | MIC (S. pneumoniae isolates; read-out: MIC BAA-1407): 13 µg/mL (≈ 39.1 µM) | MIC (S. pneumoniae isolates; read-out: MIC BHN97x): 6 µg/mL (≈ 18.1 µM) | MIC (S. pneumoniae isolates; read-out: MIC D39X): 13 µg/mL (≈ 39.1 µM) | MIC (S. pneumoniae isolates; read-out: MIC Daw7): 25 µg/mL (≈ 75.2 µM) | MIC (S. pneumoniae isolates; read-out: MIC Daw8): 25 µg/mL (≈ 75.2 µM) | MIC (S. pneumoniae isolates; read-out: MIC Daw9): 13 µg/mL (≈ 39.1 µM) | MIC (S. pneumoniae isolates; read-out: MIC Daw19): 25 µg/mL (≈ 75.2 µM) | MIC (S. pneumoniae isolates; read-out: MIC Daw26): 50 µg/mL (≈ 150 µM) | MIC (S. pneumoniae isolates; read-out: MIC Daw27): 25 µg/mL (≈ 75.2 µM) | MIC (S. pneumoniae isolates; read-out: MIC Daw47): 25 µg/mL (≈ 75.2 µM) | MIC (S. pneumoniae isolates; read-out: MIC Daw62): 25 µg/mL (≈ 75.2 µM) | MIC (S. pneumoniae isolates; read-out: MIC Daw64): 25 µg/mL (≈ 75.2 µM) | MIC (S. pneumoniae isolates; read-out: MIC OVA2): 13 µg/mL (≈ 39.1 µM) | MIC (S. pneumoniae isolates; read-out: MIC R6): 13 µg/mL (≈ 39.1 µM) | MIC (S. pneumoniae isolates; read-out: MIC T4X): 13 µg/mL (≈ 39.1 µM) | Zone of inhibition Lp ([6]; 40 μg of compound on 6 mm disc, 48 hours, range of two experiments): completely inactive | zone of inhibition at 40 µg/disc ([6]; Legionella pneumophila, ATCC33153, 48 h, read-out: Zone of inhibition Lp): 0 mm | MIC against resistant clones [7]: weakly susceptible | MIC [8]: > 200 µg/mL | IV Pharmacokinetics CL [9]: 0.60 (11.5) L/hr/Kg | IV Pharmacokinetics T1/2 [9]: 0.75 (49.3) hr | IV Pharmacokinetics Vd [9]: 0.76 (45.2) L/Kg | IV Pharmacokinetics fe (fraction excreted unchanged in urine) [9]: 0.55 (27.0) | Survival of infected mice [10]: did not survive beyond 96 hours | Reduction of intracellular inclusions [11]: failed to reduce intracellular inclusions | MIC [12]: 25 µg/mL (≈ 75.2 µM) | Chemical stability (percent of parent over time) [13]: continuously declined over time | zone of inhibition at 40 µg/disc [14]: 12 mm | MIC [15]: 100 µg/mL (≈ 301 µM) | MIC [16]: 100 µg/mL (≈ 301 µM) | Microsomal Stability t1/2 [17]: 6.43 (0.13) hr | MIC [18]: 12.5 µg/mL (≈ 37.6 µM) | Survival of infected mice ([19]; 5 mg/kg BID subcutaneous from 18 hours post challenge, D39x, n=5): died or were humanely euthanized by 120 hours post challenge | Bioluminescent imaging of infection ([19]; 72 hours post challenge, 5 mg/kg BID): systemic bacterial infection

[H]/N=C(/N)N[C@H]1[C@H](O)[C@@H](O)[C@H](O[C@@H]2O[C@@H](C)[C@](O)(C=O)[C@H]2O[C@@H]2O[C@@H](CO)[C@H](O)[C@@H](O)[C@@H]2NC)[C@@H](N/C(N)=N\[H])[C@@H]1O [Streptomycin]
MIC (S. pneumoniae isolates; [20]): > 200 µg/mL | MIC (S. pneumoniae isolates; read-out: MIC 8249): > 200 µg/mL | MIC (S. pneumoniae isolates; read-out: MIC A66.1x): 13 µg/mL (≈ 22.4 µM) | MIC (S. pneumoniae isolates; read-out: MIC BAA-1407): 50 µg/mL (≈ 86 µM) | MIC (S. pneumoniae isolates; read-out: MIC BHN97x): 13 µg/mL (≈ 22.4 µM) | MIC (S. pneumoniae isolates; read-out: MIC D39X): 13 µg/mL (≈ 22.4 µM) | MIC (S. pneumoniae isolates; read-out: MIC Daw7): 25 µg/mL (≈ 43 µM) | MIC (S. pneumoniae isolates; read-out: MIC Daw8): 25 µg/mL (≈ 43 µM) | MIC (S. pneumoniae isolates; read-out: MIC Daw9): > 200 µg/mL | MIC (S. pneumoniae isolates; read-out: MIC Daw62): 25 µg/mL (≈ 43 µM) | MIC (S. pneumoniae isolates; read-out: MIC Daw64): 25 µg/mL (≈ 43 µM) | MIC (S. pneumoniae isolates; read-out: MIC OVA2): 13 µg/mL (≈ 22.4 µM) | MIC (S. pneumoniae isolates; read-out: MIC R6): 13 µg/mL (≈ 22.4 µM) | MIC (S. pneumoniae isolates; read-out: MIC T4X): 6 µg/mL (≈ 10.3 µM)

CC[C@H]1OC(=O)[C@H](C)[C@@H](O[C@H]2C[C@@](C)(OC)[C@@H](O)[C@H](C)O2)[C@H](C)[C@@H](O[C@@H]2O[C@H](C)C[C@H](N(C)C)[C@H]2O)[C@](C)(O)C[C@@H](C)C(=O)[C@H](C)[C@@H](O)[C@]1(C)O [Erythromycin]
MIC (S. pneumoniae isolates; [20]): 2 µg/mL (≈ 2.73 µM) | MIC (S. pneumoniae isolates; read-out: MIC 8249): > 2 µg/mL | MIC (S. pneumoniae isolates; read-out: MIC BAA-1407): 50 µg/mL (≈ 68.1 µM) | MIC (S. pneumoniae isolates; read-out: MIC Daw7): ≤ 0.2 µg/mL | MIC (S. pneumoniae isolates; read-out: MIC Daw8): ≤ 0.2 µg/mL | MIC (S. pneumoniae isolates; read-out: MIC Daw9): 2 µg/mL (≈ 2.73 µM) | MIC (S. pneumoniae isolates; read-out: MIC Daw19): 1 µg/mL (≈ 1.36 µM) | MIC (S. pneumoniae isolates; read-out: MIC Daw26): 0.1 µg/mL (≈ 0.136 µM) | MIC (S. pneumoniae isolates; read-out: MIC Daw27): 1 µg/mL (≈ 1.36 µM) | MIC (S. pneumoniae isolates; read-out: MIC Daw47): 0.03 µg/mL (≈ 0.0409 µM) | MIC (S. pneumoniae isolates; read-out: MIC Daw62): ≤ 0.2 µg/mL | MIC (S. pneumoniae isolates; read-out: MIC Daw64): ≤ 0.2 µg/mL | MIC (S. pneumoniae isolates; read-out: MIC OVA2): 1 µg/mL (≈ 1.36 µM) | MIC (S. pneumoniae isolates; read-out: MIC R6): ≤ 0.2 µg/mL

CC1(C)S[C@@H]2[C@H](NC(=O)Cc3ccccc3)C(=O)N2[C@H]1C(=O)O [Penicillin G]
MIC (S. pneumoniae isolates; [20]): > 2 µg/mL | MIC (S. pneumoniae isolates; read-out: MIC 8249): > 2 µg/mL | MIC (S. pneumoniae isolates; read-out: MIC A66.1x): ≤ 0.2 µg/mL | MIC (S. pneumoniae isolates; read-out: MIC BAA-1407): 2 µg/mL (≈ 5.98 µM) | MIC (S. pneumoniae isolates; read-out: MIC BHN97x): ≤ 0.2 µg/mL | MIC (S. pneumoniae isolates; read-out: MIC D39X): ≤ 0.2 µg/mL | MIC (S. pneumoniae isolates; read-out: MIC Daw7): 3 µg/mL (≈ 8.97 µM) | MIC (S. pneumoniae isolates; read-out: MIC Daw8): 3 µg/mL (≈ 8.97 µM) | MIC (S. pneumoniae isolates; read-out: MIC Daw9): 2 µg/mL (≈ 5.98 µM) | MIC (S. pneumoniae isolates; read-out: MIC Daw19): 3 µg/mL (≈ 8.97 µM) | MIC (S. pneumoniae isolates; read-out: MIC Daw26): 3 µg/mL (≈ 8.97 µM) | MIC (S. pneumoniae isolates; read-out: MIC Daw27): 3 µg/mL (≈ 8.97 µM) | MIC (S. pneumoniae isolates; read-out: MIC Daw47): 3 µg/mL (≈ 8.97 µM) | MIC (S. pneumoniae isolates; read-out: MIC Daw62): 3 µg/mL (≈ 8.97 µM) | MIC (S. pneumoniae isolates; read-out: MIC Daw64): 2 µg/mL (≈ 5.98 µM) | MIC (S. pneumoniae isolates; read-out: MIC OVA2): ≤ 0.2 µg/mL | MIC (S. pneumoniae isolates; read-out: MIC R6): ≤ 0.2 µg/mL | MIC (S. pneumoniae isolates; read-out: MIC T4X): ≤ 0.2 µg/mL

CO/N=C(\C(=O)N[C@@H]1C(=O)N2C(C(=O)O)=C(COC(C)=O)CS[C@H]12)c1csc(N)n1 [Cefotaxime]
MIC (S. pneumoniae isolates; [20]): 0.2 µg/mL (≈ 0.439 µM) | MIC (S. pneumoniae isolates; read-out: MIC 8249): 3 µg/mL (≈ 6.59 µM) | MIC (S. pneumoniae isolates; read-out: MIC Daw19): 1 µg/mL (≈ 2.2 µM) | MIC (S. pneumoniae isolates; read-out: MIC Daw26): 3 µg/mL (≈ 6.59 µM) | MIC (S. pneumoniae isolates; read-out: MIC Daw47): 3 µg/mL (≈ 6.59 µM)

CC1(C)S[C@@H]2[C@H](NC(=O)[C@H](N)c3ccccc3)C(=O)N2[C@H]1C(=O)O [ampicillin]
Survival of infected mice, 9 day experiment ([19]; matched doses 2.5 or 5 mg/kg): all survived | Reduction of bacterial titers ([19]; within 48 hours post infection, 2.5 or 5 mg/kg): more than 3 logs
